Measured values reported in patent US20110020448A1, “PHARMACEUTICAL COMPOSITION FOR THE TREATMENT AND PREVENTION OF GLAUCOMA” (MAZENCE, INC., priority 2007, published 2011).

Experiments:
retinal ganglion cells = experiment: Viability of retinal ganglion cells (RGCs) in TTT laser optic nerve injury (glaucoma) model; type: in vivo, C57BL/6 mice; details: TTT laser model mice, rodent chow containing 50 mg/kg, fed 2 weeks; RGCs labeled day 13, counted 24 h later; FIG. 1
Procedure: (§1) Group 3: Experimental group (n=7) fed with a rodent chow containing 50 mg/kg of a pharmaceutical composition including compound 1 of experimental example 1 as an active ingredient, as a glaucoma model.
(§2) 8-week-old C57BL/6 mice were anesthetized with an intraperitoneal injection of a mixture of ketamine (100 mg/kg) and xylazine (5 mg/kg), and a mydriatic agent was applied to dilate the pupils of the eyes. Thereafter, an application of transpupillary thermotherapy (TTT), 200 spot size, 50-mW power, and 30-sec duration, was performed over the optic disc of an eye. The aiming beam of the laser was focused on the centre of the optic disc, a viscoelastic material was instilled, a cover glass was placed, and laser beams were irradiated while confirming the optic disc through the dilated pupils by naked eyes. The thus-established optic nerve injury model will be hereinafter referred to as a TTT laser model. […]
Twenty-four hours after labeling, the animals were euthanized and the eyes were enucleated and fixed for 2 hours with neutral formalin. […] Under a fluorescence microscope (×400), the fluorescently labeled retinal ganglion cells were counted in 12 regions in the four quadrants of each retina approximately 0.5 mm, 1 mm and 1.5 mm from the edge of the optic disc. […]

axons of the optic nerve = experiment: Axonal viability (Bodian staining) in TTT laser optic nerve injury (glaucoma) model; type: in vivo, C57BL/6 mice; details: TTT laser model mice, rodent chow containing 50 mg/kg; day 14 after laser irradiation; FIG. 2
Procedure: as §1, §2
The retinal cross-section and the optic nerve cross-section were treated with a silver solution for 48 hours, and color development was carried out using a reducing agent, followed by toning and fixation. […] In order to evaluate the axonal viability, the stained axons were counted with a light microscope (×1000), in 20 regions at intervals of 10 in the four quadrants of each retina, from the center of the optic nerve tissue section slide. […]

## CC1(C)CCC2=C(O1)c1ccccc1C(=O)C2=O [Compound 1, β-lapachone]
Retinal ganglion cells
  density of retinal ganglion cells relative to the TTT control group (Group 2): ≥ 1.7 fold
Axons of the optic nerve
  axonal density relative to the TTT control group (Group 2): ≥ 1.5 fold
